Results as given in patent US9139574B2, “Tumor targeted drug combretastatin A4 derivative” (Nanjing Sanhome Pharmaceutical Co., Ltd., priority 2011, dated 2015).

Columns and labels:
K562 = experiment: MTT assay of anti-tumor activity, K562; assay type: cell-based; conditions: K562 cells
Method: (§1) The cells were digested and counted. The cell suspension was prepared in a concentration of 5×10^4 cells/ml. 100 μL of the cell suspension per well was added into 96-well plates (5×10^3 cells per well). The 96-well plates were placed in a 5% CO2 incubator at 37° C. for 24 hours. The drugs were diluted with the complete medium to the desired concentrations. 100 μL of the corresponding drug-containing medium was added into each well. Negative control group, vehicle control group and positive control group were set. The 96-well plates were placed in 5% CO2 incubator at 37° C. for 72 hours. The 96-well plates were subjected to a MTT assay, and measured OD value at λ=490 nm. The measurement procedure comprises adding 20 μL MTT (5 mg/ml) for each well, incubating for 4 hours in an incubator, discarding the medium, dissolving by adding 150 μL DMSO into each well, mixing uniformly by rocking gently for 10 minutes on a shaker, reading OD value of each well in a microplate reader at λ=490 nm. The inhibition rate was calculated, the results were recorded, and the anti-tumor activity was assessed.

MCF-7 = experiment: MTT assay of anti-tumor activity, MCF-7; assay type: cell-based
Method: as §1

HCT-116 = experiment: MTT assay of anti-tumor activity, HCT-116; assay type: cell-based; conditions: HCT-116 cells
Method: as §1

NCI-H460 = experiment: MTT assay of anti-tumor activity, NCI-H460; assay type: cell-based; conditions: NCI-H460 cells
Method: as §1

tubulin = experiment: Inhibitory activity on tubulin polymerization (kit BK011P, Cytoskeleton); assay type: biochemical; conditions: 37° C., 60 minutes, fluorescence, Vmax
Method: The compounds were formulated into six different concentrations (0.03, 0.3, 0.9, 3, 9, 30 μM). The tubulin polymerization assay kit (Cat. # BK011P, Cytoskeleton) was used for testing. The samples were incubated at 37° C. for 60 minutes, and then fluorescence was collected using Gemini EM Fluorescence Microplate Reader collected at 410-460 nm. Vmax was calculated using SOFTMAX® PRO microplate data acquisition & analysis software. The tubulin inhibition (IC50) of the compound was calculated using GRAPHPAD PRISM® v5.01 graphing and statistics software.

DU-145 = experiment: MTT assay of anti-tumor activity, DU-145; assay type: cell-based; conditions: DU-145 cells
Method: as §1

[1] = Homo sapiens, MCF7, 72 h, MCF-7 cells

| IC50 (K562; Homo sapiens, K562, 72 h) | IC50 (MCF-7; [1]) | IC50 (HCT-116; Homo sapiens, HCT-116, 72 h) | IC50 (NCI-H460; Homo sapiens, NCI-H460, 72 h) | IC50 (tubulin) | melting point | IC50 (DU-145; Homo sapiens, DU-145, 72 h) | Compound | further results |
| --- | --- | --- | --- | --- | --- | --- | --- | --- |
| 0.0028 µM | 0.0463 µM | 0.0405 µM | 0.0143 µM | 0.49 µM |  |  | COc1cc(OC)cc(-c2nc[nH]c2-c2ccc(OC)c(O)c2)c1 [Compound C118, 4-(3,5-dimethoxyphenyl)-5-(3-hydroxy-4-methoxyphenyl)-imidazole] |  |
| 0.049 µM | 0.21 µM | 0.071 µM | 0.033 µM | 0.47 µM | 149.9 to 151.6 °C | 0.0025 µM | COc1cc(OC)cc(-c2ncoc2-c2ccc(OC)c(O)c2)c1 [Compound C110, 4-(3,5-dimethoxyphenyl)-5-(3-hydroxy-4-methoxyphenyl)oxazole] |  |
| 0.0072 µM | 0.0012 µM | > 0.3 µM |  | 0.66 µM | 149.9 to 151.6 °C | > 0.3 µM | CNc1ccc(-c2ocnc2-c2cc(OC)cc(OC)c2)cc1O [Compound C123, 4-(3,5-dimethoxyphenyl)-5-(3-hydroxy-4-methylaminophenyl)oxazole] | IC50 (HCT-116; 72 hours): 0.189 µM |
| 0.0057 µM | 0.101 µM | 0.335 µM | 0.052 µM | 0.46 µM |  | > 0.3 µM | COc1cc(OC)cc(-c2ncoc2-c2ccc(OC)c(N)c2)c1 [Compound C115, 4-(3,5-dimethoxyphenyl)-5-(3-amino-4-methoxyphenyl)oxazole] |  |
| 0.0069 µM | 0.0056 µM | 0.068 µM | 0.0763 µM |  | 99.2 to 101.3 °C | 0.161 µM | COc1cc(OC)cc(-c2ncn(C)c2-c2ccc(OC(F)F)c(N)c2)c1 [Compound C135, 4-(3,5-dimethoxyphenyl)-5-(3-amino-4-difluoromethoxyphenyl)-1-methylimidazole] |  |
|  |  |  |  | 0.53 µM | 178.6 to 180.4 °C |  | COc1cc(OC)cc(-c2ncoc2-c2ccc(OC)c(O)c2O)c1 [Compound C116, 4-(3,5-dimethoxyphenyl)-5-(2,3-dihydroxy-4-methoxyphenyl)oxazole] |  |
| 0.0032 µM | 0.0073 µM | 0.136 µM | > 0.3 µM |  | 168.8 to 170.9 °C | 0.0923 µM | COc1cc(-c2ncn(-c3cc(OC)c(OC)c(OC)c3)c2-c2ccc(N(C)C)cc2)cc(OC)c1OC [Compound C106, 5-(4-dimethylaminophenyl)-4-(3,4,5-trimethoxyphenyl)-1-(3,4,5-trimethoxyphenyl)imidazole] |  |
| 0.0076 µM | 0.0089 µM | > 0.3 µM | 0.0893 µM |  |  | 0.123 µM | COc1cc(OC)cc(-c2nc[nH]c2-c2ccc(OC)c(O)c2N)c1 [Compound C147, 4-(3,5-dimethoxyphenyl)-5-(2-amino-3-hydroxy-4-methoxyphenyl)imidazole] |  |
| 0.0085 µM | 0.0889 µM | > 0.3 µM | 0.0102 µM |  | 168.1 to 172.4 °C | 0.13 µM | COc1cc(OC)cc(-c2ncoc2-c2ccc(OC)c(O)c2F)c1 [Compound C117, 4-(3,5-dimethoxyphenyl)-5-(2-fluoro-3-hydroxy-4-methoxyphenyl)oxazole] |  |
|  |  |  |  | 2.35 µM | 132.6 to 134 °C |  | COc1cc(OC)cc(-c2ncoc2-c2ccc(OC)c(N)c2N)c1 [Compound C121, 4-(3,5-dimethoxyphenyl)-5-(2,3-diamino-4-methoxyphenyl)oxazole] |  |
| 0.0076 µM |  | 0.46 µM | > 0.3 µM | 1.57 µM |  | 0.0103 µM | COc1cc(OC)cc(-c2ncn(CCO)c2-c2ccc(OC)c(F)c2)c1 [Compound C256, N-hydroxyethyl-4-(3,5-dimethoxyphenyl)-5-(3-fluoro-4-methoxyphenyl)imidazole] |  |
| 0.0045 µM | 0.0078 µM | 0.052 µM | 0.0901 µM |  |  | > 0.3 µM | COc1cc(OC)cc(-c2ncn(C)c2-c2ccc(OC(F)(F)F)c(N)c2)c1 [Compound C132, 4-(3,5-dimethoxyphenyl)-5-(3-amino-4-trifluoromethoxyphenyl)-1-methylimidazole] |  |
|  |  |  |  |  |  |  | COc1cc(-c2ncn(CCO)c2-c2ccc(N(CCCl)CCCl)cc2)cc(OC)c1OC [Compound C248] | IC50 (K562; 72 hours): 0.0112 µM; IC50 (MCF-7; MCF-7 cells, 72 hours): 0.0069 µM; IC50 (HCT-116; 72 hours): 0.312 µM; IC50 (NCI-H460; 72 hours): 0.0103 µM; IC50 (DU-145; 72 hours): > 0.3 µM |
|  |  |  |  | 0.86 µM |  |  | CNc1ccc(-c2ocnc2-c2cc(OC)cc(OC)c2)cc1F [Compound C264, 4-(3,5-dimethoxyphenyl)-5-(3-fluoro-4-methylaminophenyl)oxazole] |  |
| 0.0042 µM | 0.0113 µM | 0.416 µM | 0.062 µM |  |  | 0.0041 µM | COc1cc(OC)cc(-c2ncoc2-c2ccc(OC(F)(F)F)c(O)c2)c1 [Compound C142, 4-(3,5-dimethoxyphenyl)-5-(3-hydroxy-4-trifluoromethoxyphenyl)oxazole] |  |
| 0.0064 µM | 0.0043 µM | 0.033 µM | > 0.3 µM | 1.04 µM |  | 0.28 µM | COc1cc(OC)cc(-c2ncoc2-c2ccc(OC)c(O)c2N)c1 [Compound C124, 4-(3,5-dimethoxyphenyl)-5-(2-amino-3-hydroxy-4-methoxyphenyl)oxazole] |  |
|  |  |  |  | 0.66 µM |  |  | COc1cc(OC)cc(-c2nc[nH]c2-c2ccc(OC)c(N)c2)c1 [Compound C129, 4-(3,5-dimethoxyphenyl)-5-(3-amino-4-methoxyphenyl)imidazole] |  |

| Compound | IC50 (K562; Homo sapiens, K562, 72 h) | IC50 (MCF-7; [1]) | IC50 (HCT-116; Homo sapiens, HCT-116, 72 h) | IC50 (NCI-H460; Homo sapiens, NCI-H460, 72 h) | IC50 (tubulin) | melting point | IC50 (DU-145; Homo sapiens, DU-145, 72 h) | further results |
| --- | --- | --- | --- | --- | --- | --- | --- | --- |
| COc1ccc(-c2c(-c3cc(OC)c(OC)c(OC)c3)ncn2-c2ccccc2)cc1O [Compound C087, 5-(3-hydroxy-4-methoxyphenyl)-4-(3,4,5-trimethoxyphenyl)-1-phenylimidazole] |  |  |  |  |  | 176 to 177 °C |  | IC50 (K562; Homo sapiens, 72 hours): 0.0046 µM; IC50 (MCF-7; Homo sapiens, MCF7, MCF-7 cells, 72 hours): 0.0062 µM; IC50 (HCT-116; Homo sapiens, 72 hours): 0.077 µM; IC50 (NCI-H460; Homo sapiens, 72 hours): 0.153 µM; IC50 (DU-145; Homo sapiens, 72 hours): > 0.3 µM |
| COc1ccc(/C=C\c2cc(OC)c(OC)c(OC)c2)cc1O [CA4, cis-1-(3,4,5-trimethoxyphenyl)-2-(3′-hydroxy-4′-methoxyphenyl)ethylene, reference compound] | 0.0052 µM | 0.0055 µM | 0.043 µM | 0.0056 µM | […] |  | 0.0072 µM |  |
